Like-named read-outs stand apart in the source and are kept apart here.
Key:
Pim-3 = molecular target: T1, Pim-3 (Homo sapiens, UniProt Q86V86); assay: TR-FRET assay, Pim-3 kinase (phosphorylation of Bad Ser112); format: biochemical; conditions: TR-FRET; ATP 40 μM; read-out: IC50 Pim3
T1 construct: His6-labelled recombinant full-length human Pim-1, Pim-2 or Pim-3 protein; His6; made in house
Method in brief: (§1)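 For each of Pim-1, Pim-2 and Pim-3 (His6-tagged full-length human), compounds were titrated over 10 concentrations in duplicate, typically from 30 μM, with ATP at 40 μM, equal to apparent KM. Bad Ser112 phosphorylation was read as the 665/615 nm TR-FRET ratio and IC50 fitted by 4-parameter logistic model.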

Pim-1 = molecular target: T2, Pim-1 (Homo sapiens, UniProt P11309); assay: TR-FRET assay, Pim-1 kinase (phosphorylation of Bad Ser112); format: biochemical; conditions: TR-FRET; ATP 40 μM; read-out: IC50 Pim1
T2 construct: His6-labelled recombinant full-length human Pim-1, Pim-2 or Pim-3 protein; His6; made in house
Method in brief: as §1

EOL-1 = assay: Cell viability assay (CellTiter-Blue), EOL-1; format: cell-based; conditions: Homo sapiens, EOL1, read-out: EC50 EOL-1 μM (lymphoma)
From the text: (§2) The representative compounds of the invention are also screened as regards their effects on cell proliferation and viability using a variety of human tumour cell lines, which are representative of various pathological indications. These cell lines include: • Models of haematological cancers: • TF-1 (acute myelogenic leukaemia; AML M6 at the time of diagnosis); • KG-1 (AML; erythroleukaemia evolving into AML); • KG-1a (AML; sub-clone derived from immature KG-1); • EOL-1 (AML; eosinophilic leukaemia); • PL-21 (AML; M3); • ML-2 (AML; T-NHL evolving into T-ALL evolving into AML M4); • HL-60 (AML, M3); • Kasumi-1 (AML); • GDM-1 (AML); • K-562 (CML—chronic myelogenic leukaemia; blastic crisis); • JURL-MK1 (CML; blastic crisis); • DND-41 (T-ALL—-cell acute lymphoblastic leukaemia); • Jurkat (T-ALL); NALM-6 (B-ALL—B-cell ALL); • CEM (ALL; lymphosarcoma evolving into ALL); • Jeko-1 (B-NHL—B-cell non-Hodgkin lymphoma; mantle-cell lymphoma derived from a variant with large cells as a leukaemic transformation); • WSU-DLCL2 (B-NHL; large B-cell diffuse lymphoma); • RL (B-NHL; undifferentiated diffuse); • OCI-Ly10 (B-NHL); • DoHH-2 (B-NHL); • RPMI-8226 (MM—multiple myeloma); • JVM-2 (B-CLL—B-cell chronic lymphocytic leukaemia); and • JVM-3 (B-CLL) • MV4-11 (AML) • MOLM13 (AML). • Solid tumour models: • HCT-116 (bowel cancer); • HT-29 (bowel cancer); • HC-15 (bowel cancer); • H460 (lung cancer; non-small-cell lung cancer); • A375 (melanoma); • B16F10 (melanoma); • MDA-A1 (breast cancer); • MDA-MB231 (breast cancer); • MDA-MB231 adr (breast cancer); • PANC-1 (pancreatic cancer); and • PC-3 (prostate cancer).
(§3) In order to measure the viability, the tumour cells are incubated in a 96-well or 384-well format for 48, 72 or 96 hours, preferably 72 hours, with a compound of the invention at dilutions of a factor 3 with, in general, nine doses in total, the highest dose being equal to 10 μM or 30 μM. The cell viability is evaluated by adding CellTiter-Blue® (Promega, Madison, Wis., United States) for 4 hours and end-point readings are taken using a SpectraMax Genmini EM (Molecular Devices, Sunnyvale, Calif., United States). The CellTiter-Blue® cell viability assay measures the ability of the cells in culture to reduce resazurin to resorufin, the fluorescence signal intensity being directly proportional to the number of live cells.

PLK1 = PLK1 (Homo sapiens, UniProt P53350); assay: PLK1 biochemical inhibition
MV4-11 = assay: Cell viability assay (CellTiter-Blue), MV4-11; format: cell-based; conditions: Homo sapiens
From the text: as §2, §3

Pim-2 = molecular target: T3, Pim-2 (Homo sapiens, UniProt Q9P1W9); assay: TR-FRET assay, Pim-2 kinase (phosphorylation of Bad Ser112); format: biochemical; conditions: TR-FRET; ATP 40 μM; read-out: IC50 Pim2
T3 construct: His6-labelled recombinant full-length human Pim-1, Pim-2 or Pim-3 protein; His6; made in house
Method in brief: as §1

MOLM-13 = assay: Cell viability assay (CellTiter-Blue), MOLM-13; format: cell-based; conditions: Homo sapiens
From the text: as §2, §3

PI3K = PI3K biochemical inhibition
[1] = EOL-1 cells, cell proliferation/viability
[2] = MV4-11 cells, cell proliferation/viability, read-out: IC50 MV4-11 μM (myeloma)
[3] = MOLM-13 cells, cell proliferation/viability, read-out: IC50 MOLM-13 μM (myeloma)

T2 sequence (P11309 whole entry): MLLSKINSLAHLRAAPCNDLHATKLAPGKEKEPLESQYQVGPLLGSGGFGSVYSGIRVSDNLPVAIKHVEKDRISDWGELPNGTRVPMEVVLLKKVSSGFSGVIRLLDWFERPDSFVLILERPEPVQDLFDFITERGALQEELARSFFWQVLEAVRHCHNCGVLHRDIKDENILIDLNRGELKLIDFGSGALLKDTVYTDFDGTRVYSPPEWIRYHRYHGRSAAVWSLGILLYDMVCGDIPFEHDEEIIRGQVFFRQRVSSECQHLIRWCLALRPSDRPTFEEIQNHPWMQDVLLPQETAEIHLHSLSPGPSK
T3 sequence (Q9P1W9 whole entry): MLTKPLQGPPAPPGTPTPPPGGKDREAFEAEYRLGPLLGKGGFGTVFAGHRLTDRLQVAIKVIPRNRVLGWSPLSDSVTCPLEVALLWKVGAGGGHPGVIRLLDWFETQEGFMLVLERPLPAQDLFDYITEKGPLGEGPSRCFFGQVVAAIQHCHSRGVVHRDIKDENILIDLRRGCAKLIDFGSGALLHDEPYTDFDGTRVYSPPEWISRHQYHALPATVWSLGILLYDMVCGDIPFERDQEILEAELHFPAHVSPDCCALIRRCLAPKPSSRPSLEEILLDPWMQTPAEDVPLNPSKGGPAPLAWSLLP
Sequence of PLK1 (P53350 whole entry, species assumed): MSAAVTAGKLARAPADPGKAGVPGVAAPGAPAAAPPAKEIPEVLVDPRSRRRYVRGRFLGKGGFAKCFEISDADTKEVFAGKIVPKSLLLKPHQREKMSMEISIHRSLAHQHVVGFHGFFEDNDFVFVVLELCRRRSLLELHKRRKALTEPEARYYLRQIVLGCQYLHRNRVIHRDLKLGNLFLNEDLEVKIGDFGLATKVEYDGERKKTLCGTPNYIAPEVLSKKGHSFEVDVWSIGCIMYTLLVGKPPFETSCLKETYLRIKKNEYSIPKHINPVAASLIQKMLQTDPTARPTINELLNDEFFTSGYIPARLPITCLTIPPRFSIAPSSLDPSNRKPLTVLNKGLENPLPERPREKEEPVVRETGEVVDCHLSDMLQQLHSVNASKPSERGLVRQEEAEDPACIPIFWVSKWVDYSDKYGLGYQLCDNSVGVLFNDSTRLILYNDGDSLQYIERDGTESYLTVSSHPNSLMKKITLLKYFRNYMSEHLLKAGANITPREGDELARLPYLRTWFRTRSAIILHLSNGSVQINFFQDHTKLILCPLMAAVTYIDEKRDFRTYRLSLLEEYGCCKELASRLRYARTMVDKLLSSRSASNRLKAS

| Compound | IC50 (Pim-3) | IC50 (Pim-1) | EC50 (EOL-1; [1]) | IC50 (PLK1) | IC50 (MV4-11; [2]) | IC50 (Pim-2) | IC50 (MOLM-13; [3]) | IC50 (PI3K) | EC50 (EOL-1) | IC50 (MV4-11; MV4-11, read-out: IC50 MV4-11 μM (myeloma)) | IC50 (MOLM-13; MOLM-13, read-out: IC50 MOLM-13 μM (myeloma)) |
| --- | --- | --- | --- | --- | --- | --- | --- | --- | --- | --- | --- |
| COc1cnc2[nH]c3cnc(-c4cccnc4)cc3c2c1 [Example 7, 3-methoxy-6-(pyrid-3-yl)-9H-pyrrolo-[2,3-b:5,4-c′]-dipyridine] | 1 to 100 nM | 1 to 100 nM | 100 to 1000 nM | 100 to 1000 nM | 100 to 1000 nM | 100 to 1000 nM | 100 to 1000 nM | – | – | – | – |
| COc1ccnc2[nH]c3cnc(-c4cccnc4)cc3c12 [Example 8, 4-methoxy-6-(pyrid-3-yl)-9H-pyrrolo-[2,3-b:5,4-c′]-dipyridine] | 100 to 1000 nM | 1 to 100 nM | 100 to 1000 nM | 100 to 1000 nM | 100 to 1000 nM | 1000 to 5000 nM | 100 to 1000 nM | – | – | – | – |
| NS(=O)(=O)c1cccc(-c2c(F)cnc3[nH]c4cnc(-c5cccnc5)cc4c23)c1 [Example 21, 3-[3-Fluoro-6-(pyrid-3-yl)-9H-pyrrolo[2,3-b:5,4-c′]dipyrid-4-yl]-benzenesulfonamide] | 100 to 1000 nM | 1 to 100 nM | – | 1 to 100 nM | – | > 5000 nM | – | 1000 to 5000 nM | – | – | – |
| COc1cc(OC)cc(-c2c(F)cnc3[nH]c4cnc(-c5cccnc5)cc4c23)c1 [Example 23, 4-(3,5-dimethoxy-phenyl)-3-fluoro-6-(pyrid-3-yl)-9H-pyrrolo-[2,3-b:5,4-c′]dipyridine] | 100 to 1000 nM | 1 to 100 nM | – | 1000 to 5000 nM | – | > 5000 nM | – | > 5000 nM | – | – | – |
| Oc1cccc(-c2c(F)cnc3[nH]c4cnc(-c5cccnc5)cc4c23)c1 [Example 26] | 100 to 1000 nM | 1 to 100 nM | – | – | – | 1000 to 5000 nM | – | 100 to 1000 nM | – | – | – |
| Fc1cnc2[nH]c3cnc(-c4cccnc4)cc3c2c1/C=C/C1CC1 [Example 27, 4-[(E)-2-cyclopropyl-ethenyl]-3-fluoro-6-(pyrid-3-yl)-9H-pyrrolo-[2,3-b:5,4-c′]dipyridine] | 100 to 1000 nM | 1 to 100 nM | – | – | – | > 5000 nM | – | > 5000 nM | – | – | – |
| O=S(=O)(NC1CC1)c1ccc(-c2c(F)cnc3[nH]c4cnc(-c5cccnc5)cc4c23)cc1 [Example 28, N-cyclopropyl-4-(3-fluoro-6-(pyrid-3-yl)-9H-pyrrolo[2,3-b:5,4-c′]-dipyrid-4-yl]benzene-sulfonamide] | 100 to 1000 nM | 1 to 100 nM | – | 1 to 100 nM | – | > 5000 nM | – | 1000 to 5000 nM | – | – | – |
| CCN(CC)CCN1CCN(c2c(F)cnc3[nH]c4cnc(-c5cccnc5)cc4c23)CC1 [Example 79, N,N-diethyl-2-{4-[3-fluoro-6-(pyrid-3-yl)-9H-pyrrolo[2,3-b:5,4-c′]dipyrid-4-yl]-piperazin-1-yl}-ethanamine] | 1 to 100 nM | 1 to 100 nM | – | 100 to 1000 nM | – | 1000 to 5000 nM | – | 1000 to 5000 nM | – | – | – |
| Fc1cnc2[nH]c3cnc(-c4cccnc4)cc3c2c1N1CCN(CCCN2CCCCC2)CC1 [Example 86, 3-fluoro-4-{4-[3-(piperid-1-yl)propyl]piperazin-1-yl}-6-(pyrid-3-yl)-9H-pyrrolo-[2,3-b:5,4-c′]-dipyridine] | 1 to 100 nM | 1 to 100 nM | 100 to 1000 nM | 100 to 1000 nM | 100 to 1000 nM | 100 to 1000 nM | – | > 5000 nM | – | – | – |
| CN(C)CCCOc1ccc(-c2c(F)cnc3[nH]c4cnc(-c5cccnc5)cc4c23)cc1 [Example 94, 3-{-4-[3-fluoro-6-(pyrid-3-yl)-9H-pyrrolo[2,3-b:5,4-c′]dipyrid-4-yl]phenoxy}-N,N-dimethylpropan-1-amine] | 1 to 100 nM | 1 to 100 nM | – | 1 to 100 nM | – | 100 to 1000 nM | – | – | 1 to 100 nM | 1 to 100 nM | 100 to 1000 nM |
| CN(C)CCOc1ccc(-c2c(F)cnc3[nH]c4cnc(-c5cccnc5)cc4c23)cc1 [Example 96, 2-{4-[3-fluoro-6-(pyrid-3-yl)-9H-pyrrolo[2,3-b:5,4-c′]dipyrid-4-yl]-phenoxy}-N,N-dimethylethanamine] | 1 to 100 nM | 1 to 100 nM | 1 to 100 nM | 100 to 1000 nM | 100 to 1000 nM | 100 to 1000 nM | 100 to 1000 nM | – | – | – | – |
| Fc1cnc2[nH]c3cnc(-c4cccnc4)cc3c2c1-c1ccc(OCCN2CCCC2)cc1 [Example 97, 3-fluoro-6-(pyrid-3-yl)-4-{4-[2-(pyrrolidin-1-yl)ethoxy]phenyl}-9H-pyrrolo[2,3-b:5,4-c′]dipyridine] | 1 to 100 nM | 1 to 100 nM | 100 to 1000 nM | 1 to 100 nM | 100 to 1000 nM | 100 to 1000 nM | 100 to 1000 nM | – | – | – | – |
| CC(COc1ccc(-c2c(F)cnc3[nH]c4cnc(-c5cccnc5)cc4c23)cc1)CN(C)C (stereo not drawn) [Example 98, 3-{4-[3-fluoro-6-(pyrid-3-yl)-9H-pyrrolo[2,3-b:5,4-c′]dipyrid-4-yl]phenoxy}-N,N,2-trimethylpropan-1-amine] | 1 to 100 nM | 1 to 100 nM | 1 to 100 nM | 100 to 1000 nM | 100 to 1000 nM | 1 to 100 nM | 100 to 1000 nM | – | – | – | – |
| CCN(CC)CCOc1ccc(-c2c(F)cnc3[nH]c4cnc(-c5cccnc5)cc4c23)cc1 [Example 100, N,N-diethyl-2-{4-[3-fluoro-6-(pyrid-3-yl)-9H-pyrrolo[2,3-b:5,4-c′]dipyrid-4-yl]-phenoxy}ethanamine] | 1 to 100 nM | 1 to 100 nM | 1 to 100 nM | 1 to 100 nM | 100 to 1000 nM | 100 to 1000 nM | 100 to 1000 nM | – | – | – | – |
| CCN(CC)C(=O)c1cccc(-c2cnc3[nH]c4cnc(-c5cccnc5)cc4c3c2)c1 [Example 119, N,N-diethyl-3-[6-(pyrid-3-yl)-9H-pyrrolo[2,3-b:5,4-c′]dipyrid-3-yl]-benzamide] | 1 to 100 nM | 1 to 100 nM | 1 to 100 nM | 100 to 1000 nM | 100 to 1000 nM | 100 to 1000 nM | 100 to 1000 nM | – | – | – | – |
| Cc1n[nH]c(C)c1-c1cnc2[nH]c3cnc(-c4cccnc4)cc3c2c1 [Example 120, 3-(3,5-dimethyl-1H-pyrazol-4-yl)-6-(pyrid-3-yl)-9H-pyrrolo[2,3-b:5,4-c′]-dipyridine] | 1 to 100 nM | 1 to 100 nM | 1 to 100 nM | 100 to 1000 nM | 1 to 100 nM | > 5000 nM | 100 to 1000 nM | – | – | – | – |
| CCN(CC)CCn1cc(-c2cnc3[nH]c4cnc(-c5cccnc5)cc4c3c2)cn1 [Example 123, N,N-diethyl-2-{4-[6-(pyrid-3-yl)-9H-pyrrolo-[2,3-b:5,4-c′]-dipyrid-3-yl]-1H-pyrazol-1-yl}-ethanamine] | 1 to 100 nM | 1 to 100 nM | 1 to 100 nM | 1000 to 5000 nM | 1 to 100 nM | 100 to 1000 nM | 1 to 100 nM | – | – | – | – |
| c1cncc(-c2cc3c(cn2)[nH]c2ncc(-c4ccc(N5CCNCC5)cc4)cc23)c1 [Example 130, 3-[4-(piperazin-1-yl)phenyl]-6-(pyrid-3-yl)-9H-pyrrolo[2,3-b:5,4-c′]dipyridine] | 1 to 100 nM | 1 to 100 nM | 1 to 100 nM | – | 1 to 100 nM | 100 to 1000 nM | 1 to 100 nM | – | – | – | – |

From patent US20110178053A1, “AZACARBOLINE DERIVATIVES, PREPARATION METHOD THEREOF AND THERAPEUTIC USE OF SAME” (SANOFI-AVENTIS, priority 2008, published 2011)
